Results as given in patent publication US8486979B2, “1,2,4 oxadiazole compounds and methods of use thereof” (AbbVie Inc., priority 2006, dated 2013).
One block for each compound: values may come before it.

Key:
[1] = molecular target: T1, human α3β4 nicotinic acetylcholine receptor (Homo sapiens, UniProt P30926+P32297); assay: Calcium flux (FLIPR) assay, HEK-293 cells expressing human α3β4 nAChR; type: cell-based; conditions: for calcium response of partial agonist co-applied with PAM: co-applied with PAM Compound 1, α3β4 nAChRs
T1 construct: expressed in transfected cells
Method: Experimental Procedure: Human embryonic kidney (HEK) 293 cells stably expressing human α4β2 or α3β4 combinations are grown to confluency in 162 cm^2 tissue culture flasks in DMEM media supplemented with 10% FBS and 25 μg/ml zeocin and 200 μg/ml hygromycin B. IMR-32 neuroblastoma cells (ATCC) are grown to confluency in 162 cm^2 tissue culture flasks in minimum essential media supplemented with 10% FBS and 1 mM sodium pyruvate, 1% non-essential amino acids and 1% antibiotic-antimycotic. The cells are then dissociated using cell dissociation buffer and 100-150 μl per well of 3.5×10^5 cells/ml cell suspension (˜50,000-100,000 cells/well) was plated into 96-well black plates (poly-D-lysine precoated) with clear bottom and maintained for 24-48 hours in a tissue culture incubator at 37° C. under an atmosphere of 5% CO2: 95% air. Other clonal cell lines or primary cell cultures that express endogenous α4* nicotinic receptors may also be used in this assay. Calcium flux was measured using calcium-3 assay kit (Molecular Devices, Sunnyvale, Calif.) or fluo-4 (Invitrogen). […] The cells were loaded with 100 μl of the dye per well and incubated at room temperature for up to one hour for HEK 293 clonal stable cell lines or 30 minutes-45 minutes at 37° C. for IMR-32 cells Fluorescence measurements were read simultaneously from all the wells by a Fluorometic Imaging Plate Reader (FLIPR) at an excitation wavelength of 480 nm and an emission wavelength of 520 nm. Baseline fluorescence was measured for the first 6 seconds at which 3× concentrations of modulator/test compounds were added to the cell plate at 50 μl and incubated for five minutes. The fluorescence intensity was captured every second for the first 1 minute followed by every 5 seconds for an additional 4 minutes. This procedure was followed by 50 μl of 4× concentration of agonist and readings were taken for a period of 3-5 minutes as described above. […] The concentration dependence of changes fluorescence responses was fitted by nonlinear regression analysis (GraphPad Prism, San Diego, Calif.) to obtain EC50 values. […]

[2] = molecular target: T2, human α4β2 nicotinic acetylcholine receptor (Homo sapiens, UniProt P17787+P43681); assay: Calcium flux (FLIPR) assay, HEK-293 cells expressing human α4β2 nAChR; type: cell-based; conditions: for calcium response of partial agonist alone: without PAM; for calcium response of partial agonist co-applied with PAM: co-applied with PAM Compound 1, α4β2 nAChRs
T2 construct: expressed in transfected cells
Method: Experimental Procedure: Human embryonic kidney (HEK) 293 cells stably expressing human α4β2 or α3β4 combinations are grown to confluency in 162 cm^2 tissue culture flasks in DMEM media supplemented with 10% FBS and 25 μg/ml zeocin and 200 μg/ml hygromycin B. IMR-32 neuroblastoma cells (ATCC) are grown to confluency in 162 cm^2 tissue culture flasks in minimum essential media supplemented with 10% FBS and 1 mM sodium pyruvate, 1% non-essential amino acids and 1% antibiotic-antimycotic. The cells are then dissociated using cell dissociation buffer and 100-150 μl per well of 3.5×10^5 cells/ml cell suspension (˜50,000-100,000 cells/well) was plated into 96-well black plates (poly-D-lysine precoated) with clear bottom and maintained for 24-48 hours in a tissue culture incubator at 37° C. under an atmosphere of 5% CO2: 95% air. Other clonal cell lines or primary cell cultures that express endogenous α4* nicotinic receptors may also be used in this assay. Calcium flux was measured using calcium-3 assay kit (Molecular Devices, Sunnyvale, Calif.) or fluo-4 (Invitrogen). A stock solution of the dye was prepared by dissolving each vial supplied by the vendor in Hank's balanced salt solution buffer (HBSS) or 150 mM NMDG, 20 mM CaCl2 containing 10 mM HEPES, The stock solution was diluted 1:20 using the same buffer before use. The growth media was removed from the cells. The cells were loaded with 100 μl of the dye per well and incubated at room temperature for up to one hour for HEK 293 clonal stable cell lines or 30 minutes-45 minutes at 37° C. for IMR-32 cells Fluorescence measurements were read simultaneously from all the wells by a Fluorometic Imaging Plate Reader (FLIPR) at an excitation wavelength of 480 nm and an emission wavelength of 520 nm. Baseline fluorescence was measured for the first 6 seconds at which 3× concentrations of modulator/test compounds were added to the cell plate at 50 μl and incubated for five minutes. The fluorescence intensity was captured every second for the first 1 minute followed by every 5 seconds for an additional 4 minutes. This procedure was followed by 50 μl of 4× concentration of agonist and readings were taken for a period of 3-5 minutes as described above. Data was normalized to maximal responses and plotted as a function of concentration. The concentration dependence of changes fluorescence responses was fitted by nonlinear regression analysis (GraphPad Prism, San Diego, Calif.) to obtain EC50 values.
The positive allosteric modulator effects on α4β2 nAChRs exemplified by 3-(3-pyridin-3-yl-1,2,4-oxadiazol-5-yl)benzonitrile (Compound 1) and 3,5-di(pyridin-3-yl)-1,2,4-oxadiazole (Compound 2) can be identified by measuring their potentiating effect to fluorescence changes in intracellular calcium using a fluorimetric plate reader. The potentiating effect of an α4β2 modulator on α4β2 receptor can also be illustrated by concentration responses to α4β2 agonists, for example 5-[(2R)-azetidin-2-ylmethoxy]-2-chloropyridine (Compound A) and (3R)-1-pyridin-3-ylpyrrolidin-3-amine (Compound B), in presence of a fixed concentration of PAM. […] In addition to compound A and B, other known nicotinic agonists can be left-shifted in presence of α4β2 PAM such as […]. […] This could lead to preferential effects of the agonist at the desired subtype, viz., α4β2, without effects at other nicotinic receptor subtypes and thus enhancing in vivo selectivity of the agonist.
The activity (allosteric effects—potentiation of fluorescence responses) ranges are defined as follows; “a” denotes as activity range from 200-400%, “b” denotes an activity range from 150-200%, “c” denotes an activity range from 120-150% and “d” denotes an activity range 90-120%. […]

[3] = test system: nerve injury induced mechanical allodynia; assay: Chung model of neuropathic pain (L5-L6 spinal nerve ligation, tactile allodynia, von Frey); type: in vivo; conditions: rat
Method: Animals: Male Sprague-Dawley rats (Charles River, Wilmington, Mass.) weighing 120-150 grams at time of surgery were utilized. These animals were group housed in AAALAC approved facilities at Abbott Laboratories in a temperature-regulated environment with lights on between 0700 and 2000 hours. Food and water was available ad libitum except during testing. All animal handling and experimental protocols were approved by an institutional animal care and use committee (IACUC). All experiments were performed during the light cycle.
Chemicals: 5-[(2R)-Azetidin-2-ylmethoxy]-2-chloropyridine (Compound A, 1-100 nmol/kg) and 3-(3-pyridin-3-yl)-1,2,4-oxadiazol-5-yl)benzonitrile (α4β2 PAM Compound 1, 1-35 μmol/kg, i.p.) was used. Compound A and D was prepared in saline and injected in solution in a volume of 2 ml/kg body weight 30 minutes before behavioral evaluation. Compound 1,3-(3-(pyridin-3-yl)-1,2,4-oxadiazol-5-yl)benzonitrile, was prepared in 30% hydroxybetacyclodextrin and injected in solution in a volume of 4 ml/kg body weight immediately before Compound A. For studies with Compound D, the doses tested ranged from 0.3-30 μmol/kg i.p.
Experimental Procedure: To produce neuropathic pain, tight ligation of the L5-L6 spinal nerves was performed. As previously described in detail by Kim and Chung (Kim S H and Chung J M (1992), Pain 50: 355), following sterilization procedures, a 1.5 cm incision was made dorsal to the lumbosacral plexus. The paraspinal muscles (left side) were separated from the spinous processes, the L5 and L6 spinal nerves isolated, and tightly ligated with 3-0 silk thread. Following hemostasis, the wound was sutured and coated with antibiotic ointment. The rats were allowed to recover and then placed in a cage with soft bedding for 7-14 days before behavioral testing for mechanical allodynia.
Tactile allodynia was measured using calibrated (force; g) von Frey filaments (Stoelting, Wood Dale, Ill.). Briefly, rats were placed into individual plexiglass containers and allowed to acclimate for 15-20 minutes before testing. Withdrawal threshold was determined by increasing and decreasing stimulus intensity and estimated using a Dixon non-parametric test (Chaplan et al., 1994; Chaplan S R, Bach F W, Pogrel J W, Chung J M and Yaksh T L (1994) J Neurosci Methods 53:55-63). Only rats with threshold scores ≦4.5 g were considered allodynic and utilized in further testing. A percent of maximal possible effect (% M.P.E.) of the tested compounds was calculated according to the formula: ([post-drug threshold]−[baseline threshold])/([maximum threshold]−[baseline threshold])×100%, where maximum threshold was equal to 15 g.
Statistical analysis: Analysis of the in vivo data was carried out using analysis of variance. Where appropriate, Bonferroni's Multiple Comparison Test was used for post-hoc analysis. The level of significance was set at p less than 0.05. Data are presented as mean ±S.E.M.

[4] = molecular target: T3, α4β2 nAChR modulator site (Homo sapiens, UniProt P17787+P43681); assay: [3H]-POB binding, membrane enriched fractions from human cortex; conditions: saturation binding, human frontal cortex membranes, 4° C.
T3 construct: membrane enriched fractions from human cortex (ABS Inc., Wilmington, Del.); tissue ABS Inc., Wilmington, Del; host or cells: human cortex (frontal cortex) membrane enriched fractions
Method: [^3H]-POB ([^3H]-3-(5-(pyridin-3-yl)-1,2,4-oxadiazol-3-yl)benzonitrile) binding to a α4β2 nAChR modulator site was determined using membrane enriched fractions from human cortex (ABS Inc., Wilmington, Del.). Pellets were thawed at 4° C., washed and resuspended with a Polytron at a setting of 7 in 30 volumes of BSS-Tris buffer (120 mM NaCl, 5 mM KCl, 2 mM CaCl2, 2 mM MgCl2, and 50 mM Tris-Cl, pH 7.4, 4° C.). For saturation binding isotherms, eight concentrations of [^3H]-POB (10-250 nM) in quadruplicate and homogenate containing 100-200 μg of protein were incubated in a final volume of 500 μL for 75 minutes at 4° C. Non-specific binding was determined in the presence of 30 μM unlabeled 3-(5-(pyridin-3-yl)-1,2,4-oxadiazol-3-yl)benzonitrile. Under these conditions, saturable binding of [^3H]-POB binding was measured in membrane enriched fractions from human frontal cortex (FIG. 10). […]
For use in concentration-inhibition assays, seven log-dilution concentrations of test compounds containing 100-200 μg of protein, and 50 nM [^3H]-POB (16.4 Ci/mmol) were incubated in a final volume of 500 μL for 75 minutes at 4° C. in duplicate. Non-specific binding was determined in the presence of 30 μM 3-(5-(pyridin-3-yl)-1,2,4-oxadiazol-3-yl)benzonitrile. […] IC50 values were determined by nonlinear regression in Microsoft® Excel or Assay Explorer. […]

emesis = assay: Emesis in ferrets; type: in vivo; conditions: ferret
Method: Fasted male ferrets (Marshall BioResources, North Rose, N.Y.) weighing between 1.0 and 1.7 kg are used to determine the emetic effects. α4β2 PAM (Compound 1) was administered first and thirty minutes later, Compound A was administered at various doses. […] The percentage of animals that experienced emesis at a given dose was recorded.

[5] = Compound 1 3.5 μmol/kg with various doses of Compound A

T1 sequence (P32297 32-505): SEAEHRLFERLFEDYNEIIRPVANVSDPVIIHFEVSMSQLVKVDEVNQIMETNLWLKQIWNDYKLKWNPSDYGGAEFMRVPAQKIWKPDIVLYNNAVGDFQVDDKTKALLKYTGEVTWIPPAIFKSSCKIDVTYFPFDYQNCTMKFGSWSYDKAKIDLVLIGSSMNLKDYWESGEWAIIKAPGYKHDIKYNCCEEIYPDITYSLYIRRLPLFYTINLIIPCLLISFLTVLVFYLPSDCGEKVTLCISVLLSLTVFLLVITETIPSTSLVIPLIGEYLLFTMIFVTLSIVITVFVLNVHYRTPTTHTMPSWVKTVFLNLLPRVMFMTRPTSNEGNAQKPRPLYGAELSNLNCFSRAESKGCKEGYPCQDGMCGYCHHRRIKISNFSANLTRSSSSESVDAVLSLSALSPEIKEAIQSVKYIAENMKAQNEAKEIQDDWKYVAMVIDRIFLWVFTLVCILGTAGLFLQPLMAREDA
T1 sequence (P30926 22-498): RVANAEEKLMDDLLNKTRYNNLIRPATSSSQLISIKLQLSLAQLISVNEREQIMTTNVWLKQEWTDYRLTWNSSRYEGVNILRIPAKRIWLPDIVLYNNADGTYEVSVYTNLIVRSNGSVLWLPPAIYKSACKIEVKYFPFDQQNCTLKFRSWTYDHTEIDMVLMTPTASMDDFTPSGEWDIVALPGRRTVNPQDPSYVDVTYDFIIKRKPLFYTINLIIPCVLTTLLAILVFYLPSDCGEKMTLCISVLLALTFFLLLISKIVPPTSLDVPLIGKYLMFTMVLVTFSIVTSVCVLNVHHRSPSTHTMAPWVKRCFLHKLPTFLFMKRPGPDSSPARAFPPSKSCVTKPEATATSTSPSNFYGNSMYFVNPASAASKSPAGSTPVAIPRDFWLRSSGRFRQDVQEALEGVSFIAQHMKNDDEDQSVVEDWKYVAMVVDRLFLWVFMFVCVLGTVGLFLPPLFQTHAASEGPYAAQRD
T2 sequence (P43681 29-627 limits assumed): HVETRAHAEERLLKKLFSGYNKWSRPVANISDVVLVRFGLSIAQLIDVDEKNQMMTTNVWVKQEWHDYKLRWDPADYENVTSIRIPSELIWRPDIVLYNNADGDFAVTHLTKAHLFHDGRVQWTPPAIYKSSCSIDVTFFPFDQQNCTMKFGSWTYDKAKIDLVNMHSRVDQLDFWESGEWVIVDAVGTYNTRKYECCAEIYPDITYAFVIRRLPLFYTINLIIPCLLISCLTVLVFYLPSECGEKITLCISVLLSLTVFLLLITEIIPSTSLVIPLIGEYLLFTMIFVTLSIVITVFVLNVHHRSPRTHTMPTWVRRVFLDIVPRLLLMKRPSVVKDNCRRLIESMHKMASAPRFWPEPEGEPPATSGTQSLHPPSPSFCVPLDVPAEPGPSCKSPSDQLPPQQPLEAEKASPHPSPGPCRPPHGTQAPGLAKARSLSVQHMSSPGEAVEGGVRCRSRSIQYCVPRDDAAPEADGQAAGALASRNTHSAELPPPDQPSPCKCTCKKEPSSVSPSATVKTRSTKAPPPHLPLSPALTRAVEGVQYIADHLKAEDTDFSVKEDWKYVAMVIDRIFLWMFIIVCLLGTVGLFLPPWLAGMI
T2 sequence (P17787 26-502): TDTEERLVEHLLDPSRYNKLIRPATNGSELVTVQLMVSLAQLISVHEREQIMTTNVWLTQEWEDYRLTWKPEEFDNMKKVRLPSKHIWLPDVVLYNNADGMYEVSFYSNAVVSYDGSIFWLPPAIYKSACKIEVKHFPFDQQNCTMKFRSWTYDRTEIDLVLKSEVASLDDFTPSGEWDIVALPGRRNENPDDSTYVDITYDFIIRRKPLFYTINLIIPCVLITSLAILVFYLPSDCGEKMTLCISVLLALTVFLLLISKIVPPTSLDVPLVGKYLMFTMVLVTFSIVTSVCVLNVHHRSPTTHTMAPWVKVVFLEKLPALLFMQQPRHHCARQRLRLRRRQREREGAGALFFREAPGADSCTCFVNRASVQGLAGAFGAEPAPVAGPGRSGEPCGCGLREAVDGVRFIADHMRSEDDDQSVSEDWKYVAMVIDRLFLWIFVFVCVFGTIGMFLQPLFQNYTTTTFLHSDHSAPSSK
T3 sequence (P43681 29-627 limits assumed): as the sequence (P43681 29-627 limits assumed) above
T3 sequence (P17787 26-502): as the sequence (P17787 26-502) above

Structure (SMILES): c1ccc2ncc(N3C[C@@H]4CN[C@@H]4C3)cc2c1 [Compound D, (1S,5S)-3-(3,6-diaza-bicyclo[3.2.0]hept-3-yl)-quinoline]
calcium response of partial agonist co-applied with PAM [1]: not at α3β4 nAChRs | calcium response of partial agonist alone [2]: does not evoke a response | calcium response of partial agonist co-applied with PAM [2]: evoked robust responses | efficacy in neuropathic pain, administered alone ([3]; alone): ineffective in reversing neuropathic pain | efficacy in neuropathic pain, co-dosed with α4β2 PAM ([3]; co-dosed with Compound 1): significant relief of neuropathic pain

calcium response of partial agonist co-applied with PAM [1]: not at α3β4 nAChRs | calcium response of partial agonist alone [2]: does not evoke a calcium response | calcium response of partial agonist co-applied with PAM [2]: evoked robust responses
Structure (SMILES): Cc1ncccc1OC[C@@H]1CCCN1 [Compound C, 2-methyl-3-(2-(S)-pyrrolidinylmethoxy)pyridine, reference compound]

Bmax [4]: 2900±500 fmol/mg protein | Kd [4]: 60 ± 16 nM
Structure (SMILES): [3H]c1cncc(-c2nc(-c3cccc(C#N)c3)no2)c1 [Example 135, [^3H]-3-(5-(pyridin-3-yl)-1,2,4-oxadiazol-3-yl)benzonitrile]

Structure (SMILES): N#Cc1cccc(-c2nc(-c3cccnc3)no2)c1 [Example 1, 3-(3-(pyridin-3-yl)-1,2,4-oxadiazol-5-yl)benzonitrile]
effect of PAM on concentration responses to the agonists ([1]; cells expressing α3β4, agonists Compound A and Compound B): unable to affect the concentration responses to the agonists | shift of emesis dose response curve of Compound A (emesis; [5]): does not shift the dose response curve of Compound A | emesis (emesis; alone): does not cause emesis | Activity (allosteric effects—potentiation of fluorescence responses) ([2]; α4β2 positive allosteric modulation, calcium fluorescence (FLIPR)): a (“a” denotes as activity range from 200-400%) | mechanical paw withdrawal threshold (PWT) ([3]; 10 mg/kg, i.p., alone): 3.3 ± 0.4 g | shift of neuropathic pain dose response curve of Compound A [3, 5]: left-shifting the dose response curve of Compound A | efficacy in neuropathic pain, administered alone ([3]; alone): ineffective
